How the values were obtained:
intestinal fungi = assay: DSS colitis in ΔCX3CR1 mice with fungal targeting by fluconazole; assay type: in vivo; conditions: 3% DSS in drinking water, fluconazole 0.5 mg/ml in drinking water starting 4 days prior the first DSS dose, FIG. 3E-G
Experimental: Cx3cr1^GFP/GFP, C57BL/6J, Cd11c-cre^+/+, Irf4^fl/fl, Cx3cr1^tm3(DTR)Litt/J (Cx3cr1^DTR), Syk^fl/fl, Cx3cr1^tm2.1(cre/ERT2)Jung/J (Cx3cr1-cre/ERT2^+/+), Batf3^−/−, Thy1.1, and OVA-specific CD4^+ (OT-II) T-cell receptor-transgenic (H-2^b) mice were purchased from the Jackson Laboratories (Bar Harbor, Me.). […]. For depletion, mice generated through such breeding (Cd11c-cre^+/− Cx3cr1^DTR mice) and the respective littermate controls (Cd11c-cre^−/− Cx3cr1^DTR) were injected for three consecutive days with 100 ng of DT i.p followed by maintenance injection every other day for the length of the experiments. Depleted mice were designated throughout the study as ΔCX3CR1 mice. Irf4^fl/fl mice were bred to hemizygous Cd11c-cre^+/− mice to allow for genetic ablation of CD11c^+ CD11b^+ CD103^+ dendritic cells (Cd11c-cre^+/− Irf4^fl/fl mice, designated throughout the study as ΔIrf4 mice) and the generation of littermate controls (Cd11c-cre^−/− Irf4^fl/fl mice). Syk^fl/fl mice were bred to Cx3cr1-cre/ERT2^+/+ to allow for the selective depletion of Syk in CX3CR1 expressing cells upon administration of tamoxifen. […]
Cx3cr1^DTR or littermate control mice were injected with DT for three consecutive days, prior to the induction of colitis with 3% (w/v) Dextran sulfate sodium (DSS, MP Biomedicals, LLC, Aurora, Ohio) in the drinking water. […] Body weight and the presence of occult blood were assessed daily. […]

[1] = tested on: most Candida species and other dimorphic fungi; conditions: when used during the onset of intestinal disease; cited from earlier work

OC(Cn1cncn1)(Cn1cncn1)c1ccc(F)cc1F [fluconazole]
intestinal disease (DSS colitis: body weight change, neutrophil infiltration in colonic LP, H&E histology) (intestinal fungi): significantly ameliorated intestinal disease
colitis in mice with defects in antifungal immunity [1]: ameliorates colitis

From patent US11712436B2, “Theranostic test for antifungal treatment of inflammatory diseases” (Cornell University, priority 2017, dated 2023)
